Results from US20210045385A1, “PYRIDAZINONE-SUBSTITUTED KETOXIMES AS HERBICIDES” (FMC Corporation, priority 2018, published 2021).

Experiments:
Format in all cases: in vivo
[1] = test system: ragweed (common ragweed, Ambrosia artemisiifolia); experiment: Test C preemergence, visual plant response rating
Method in brief: (§1)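 Compounds in a non-phytotoxic solvent with surfactant were applied as a directed soil spray preemergence or to 2–10 cm, one- to two-leaf plants postemergence, in loam–sand soil. After about 10 d in a greenhouse, injury was visually rated against untreated controls on a 0–100 scale (100 = complete control).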

[2] = test system: pigweed (Amaranthus retroflexus); experiment: Test C preemergence, visual plant response rating
Method in brief: as §1

[3] = test system: Italian ryegrass (Lolium mutiflorum); experiment: Test C preemergence, visual plant response rating
Method in brief: as §1

[4] = test system: barnyardgrass (Echinochloa crus-galli); experiment: Test C preemergence, visual plant response rating
Method in brief: as §1

kochia (Bassia scoparia) [5] = experiment: Test C preemergence, visual plant response rating
Method in brief: as §1

[6] = test system: foxtail, green (green foxtail, Setaria viridis); experiment: Test C preemergence, visual plant response rating
Method in brief: as §1

corn (Zea mays) [7] = experiment: Test C postemergence, visual plant response rating; conditions: Test C, postemergence
Method in brief: as §1

[8] = test system: blackgrass (Alopecurus myosuroides); experiment: Test C postemergence, visual plant response rating; conditions: Test C, postemergence
Method in brief: as §1

[9] = test system: ragweed (common ragweed, Ambrosia artemisiifolia); experiment: Test C postemergence, visual plant response rating; conditions: Test C, postemergence
Method in brief: as §1

[10] = test system: pigweed (Amaranthus retroflexus); experiment: Test C postemergence, visual plant response rating; conditions: Test C, postemergence
Method in brief: as §1

[11] = test system: wheat (Triticum aestivum); experiment: Test C postemergence, visual plant response rating; conditions: Test C, postemergence
Method in brief: as §1

[12] = test system: Italian ryegrass (Lolium mutiflorum); experiment: Test C postemergence, visual plant response rating; conditions: Test C, postemergence
Method in brief: as §1

[13] = test system: barnyardgrass (Echinochloa crus-galli); experiment: Test C postemergence, visual plant response rating; conditions: Test C, postemergence
Method in brief: as §1

kochia (Bassia scoparia) [14] = experiment: Test C postemergence, visual plant response rating; conditions: Test C, postemergence
Method in brief: as §1

[15] = test system: foxtail, green (green foxtail, Setaria viridis); experiment: Test C postemergence, visual plant response rating
Method in brief: as §1

[16] = test system: sedge umbrella (small-flower umbrella sedge, Cyperus difformis); experiment: Test D flooded paddy test, visual plant response rating; conditions: 250 g ai/ha, scale 0 to 100 (0 no effect, 100 complete control), 13 to 15 d
Method in brief: (§2)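 2-leaf plants, flooded 3 cm, cpd into paddy water; greenhouse 13–15 d; visual rating vs controls, 0 = no effect, 100 = complete control; dash = no result.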

rice (Oryza sativa) [17] = experiment: as above; conditions: 250 g ai/ha, scale 0 to 100 (0 no effect, 100 complete control), 13 to 15 d
Method in brief: as §2

[18] = test system: barnyardgrass (Echinochloa crus-galli); experiment: as above; conditions: 250 g ai/ha, scale 0 to 100 (0 no effect, 100 complete control), 13 to 15 d
Method in brief: as §2

[19] = test system: duck salad (Heteranthera limosa); experiment: as above; conditions: 250 g ai/ha, scale 0 to 100 (0 no effect, 100 complete control), 13 to 15 d
Method in brief: as §2

[20] = test system: galium (catchweed bedstraw, Galium aparine); experiment: Test A postemergence, visual plant response rating
Method in brief: (§3)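 Preemergence: seeds in loam/sand blend given directed soil spray of compound in non-phytotoxic solvent with surfactant. Postemergence: plants 2–10 cm, one- to two-leaf stage, sprayed with same formulation. Visual injury rated vs untreated controls after ~10 days in greenhouse, 0 (no effect) to 100 (complete control).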

corn (Zea mays) [21] = experiment: Test A postemergence, visual plant response rating
Method in brief: as §3

[22] = test system: blackgrass (Alopecurus myosuroides); experiment: Test A postemergence, visual plant response rating
Method in brief: as §3

[23] = test system: ragweed (common ragweed, Ambrosia elatior); experiment: Test A postemergence, visual plant response rating
Method in brief: as §3

[24] = test system: pigweed (Amaranthus retroflexus); experiment: Test A postemergence, visual plant response rating
Method in brief: as §3

[25] = test system: Italian ryegrass (Lolium multiflorum); experiment: Test A postemergence, visual plant response rating
Method in brief: as §3

[26] = test system: wheat (Triticum aestivum); experiment: Test A postemergence, visual plant response rating
Method in brief: as §3

kochia (Kochia scoparia) [27] = experiment: Test A postemergence, visual plant response rating
Method in brief: as §3

[28] = test system: barnyardgrass (Echinochloa crus-galli); experiment: Test A postemergence, visual plant response rating
Method in brief: as §3

[29] = test system: foxtail, green (green foxtail, Setaria viridis); experiment: Test A postemergence, visual plant response rating
Method in brief: as §3

[30] = test system: ragweed (common ragweed, Ambrosia elatior); experiment: Test A preemergence, visual plant response rating
Method in brief: as §3

[31] = test system: pigweed (Amaranthus retroflexus); experiment: Test A preemergence, visual plant response rating
Method in brief: as §3

[32] = test system: Italian ryegrass (Lolium multiflorum); experiment: Test A preemergence, visual plant response rating
Method in brief: as §3

kochia (Kochia scoparia) [33] = experiment: Test A preemergence, visual plant response rating
Method in brief: as §3

[34] = test system: barnyardgrass (Echinochloa crus-galli); experiment: Test A preemergence, visual plant response rating
Method in brief: as §3

[35] = test system: foxtail, green (green foxtail, Setaria viridis); experiment: Test A preemergence, visual plant response rating
Method in brief: as §3

[36] = test system: sedge, umbrella (small-flower umbrella sedge, Cyperus difformis); experiment: Test B flooded paddy test, visual plant response rating; conditions: 250 g ai/ha, Flood, applied to paddy water, 2-leaf stage, evaluated after 13 to 15 days
Method in brief: (§4)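 At the two-leaf stage, seedlings received compound applied to paddy water flooded 3 cm above soil, a level sustained until assessment. Greenhouse incubation lasted 13 to 15 days before visual comparison with control plants.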

[37] = test system: ducksalad (Heteranhera limosa); experiment: as above; conditions: 250 g ai/ha, Flood, applied to paddy water, 2-leaf stage, evaluated after 13 to 15 days
Method in brief: as §4

rice (Oryza sativa) [38] = experiment: as above; conditions: 250 g ai/ha, Flood, applied to paddy water, 2-leaf stage, evaluated after 13 to 15 days
Method in brief: as §4

[39] = test system: barnyardgrass (Echinochloa crus-galli); experiment: as above; conditions: 250 g ai/ha, Flood, applied to paddy water, 2-leaf stage, evaluated after 13 to 15 days
Method in brief: as §4

[40] = 500 g ai/ha, postemergence, 0 is no effect, 100 is complete control
[41] = Postemergence, 125 g ai/ha, 0 to 100 scale (0 no effect, 100 complete control)
[42] = 125 g ai/ha, preemergence, 0 to 100 scale, 0 no effect, 100 complete control
[43] = 500 g ai/ha Preemergence, approx. 10 days

Cc1nn(C)c(=O)c(/C(=N/OCc2ccccc2)c2cccc(Cl)c2)c1O [Compound 150]
0: Pigweed plant response rating (0 to 100 scale) ([2]; 500 g ai/ha) | Ryegrass, Italian plant response rating (0 to 100 scale) ([3]; 500 g ai/ha) | Barnyardgrass plant response rating (0 to 100 scale) ([4]; 500 g ai/ha) | Kochia plant response rating (0 to 100 scale) (kochia (Bassia scoparia) [5]; 500 g ai/ha) | Foxtail, Green plant response rating (0 to 100 scale) ([6]; 500 g ai/ha) | Corn plant response rating (0 to 100 scale) (corn (Zea mays) [7]; 500 g ai/ha) | Blackgrass plant response rating (0 to 100 scale) ([8]; 500 g ai/ha) | Pigweed plant response rating (0 to 100 scale) ([10]; 500 g ai/ha) | Wheat plant response rating (0 to 100 scale) ([11]; 500 g ai/ha) | Barnyardgrass plant response rating (0 to 100 scale) ([13]; 500 g ai/ha) | Kochia plant response rating (0 to 100 scale) (kochia (Bassia scoparia) [14]; 500 g ai/ha) | Foxtail, Green plant response rating (0 to 100 scale) ([15]; 500 g ai/ha)
80: Ragweed plant response rating (0 to 100 scale) ([1]; 500 g ai/ha)
20: Ragweed plant response rating (0 to 100 scale) ([9]; 500 g ai/ha)
10: Ryegrass, Italian plant response rating (0 to 100 scale) ([12]; 500 g ai/ha)

Cc1nn(C)c(=O)c(/C(=N\OCc2ccccc2)c2cccc(Cl)c2)c1O [Compound 149]
20: Pigweed plant response rating (0 to 100 scale) ([2]; 500 g ai/ha)
0: Plant response rating, Sedge, Umbrella (Flood) [16] | Plant response rating, Rice (Flood) (rice (Oryza sativa) [17]) | Plant response rating, Barnyardgrass (Flood) [18] | Plant response rating, Ducksalad (Flood) [19] | Ragweed plant response rating (0 to 100 scale) ([1]; 125 g ai/ha) | Ragweed plant response rating (0 to 100 scale) ([1]; 500 g ai/ha) | Pigweed plant response rating (0 to 100 scale) ([2]; 125 g ai/ha) | Ryegrass, Italian plant response rating (0 to 100 scale) ([3]; 125 g ai/ha) | Ryegrass, Italian plant response rating (0 to 100 scale) ([3]; 500 g ai/ha) | Barnyardgrass plant response rating (0 to 100 scale) ([4]; 125 g ai/ha) | Barnyardgrass plant response rating (0 to 100 scale) ([4]; 500 g ai/ha) | Kochia plant response rating (0 to 100 scale) (kochia (Bassia scoparia) [5]; 125 g ai/ha) | Kochia plant response rating (0 to 100 scale) (kochia (Bassia scoparia) [5]; 500 g ai/ha) | Foxtail, Green plant response rating (0 to 100 scale) ([6]; 125 g ai/ha) | Foxtail, Green plant response rating (0 to 100 scale) ([6]; 500 g ai/ha) | Corn plant response rating (0 to 100 scale) (corn (Zea mays) [7]; 125 g ai/ha) | Corn plant response rating (0 to 100 scale) (corn (Zea mays) [7]; 500 g ai/ha) | Blackgrass plant response rating (0 to 100 scale) ([8]; 125 g ai/ha) | Blackgrass plant response rating (0 to 100 scale) ([8]; 500 g ai/ha) | Ragweed plant response rating (0 to 100 scale) ([9]; 125 g ai/ha) | Ragweed plant response rating (0 to 100 scale) ([9]; 500 g ai/ha) | Pigweed plant response rating (0 to 100 scale) ([10]; 125 g ai/ha) | Pigweed plant response rating (0 to 100 scale) ([10]; 500 g ai/ha) | Wheat plant response rating (0 to 100 scale) ([11]; 125 g ai/ha) | Wheat plant response rating (0 to 100 scale) ([11]; 500 g ai/ha) | Ryegrass, Italian plant response rating (0 to 100 scale) ([12]; 125 g ai/ha) | Barnyardgrass plant response rating (0 to 100 scale) ([13]; 125 g ai/ha) | Barnyardgrass plant response rating (0 to 100 scale) ([13]; 500 g ai/ha) | Kochia plant response rating (0 to 100 scale) (kochia (Bassia scoparia) [14]; 125 g ai/ha) | Kochia plant response rating (0 to 100 scale) (kochia (Bassia scoparia) [14]; 500 g ai/ha) | Foxtail, Green plant response rating (0 to 100 scale) ([15]; 125 g ai/ha) | Foxtail, Green plant response rating (0 to 100 scale) ([15]; 500 g ai/ha)
10: Ryegrass, Italian plant response rating (0 to 100 scale) ([12]; 500 g ai/ha)

CO/N=C(/c1ccccc1Cl)c1c(O)c(C)nn(C)c1=O [Compound 63]
80: Galium plant response rating (0 to 100 scale) [20, 40] | Blackgrass plant response rating (0 to 100 scale) [22, 40] | Pigweed plant response rating (0 to 100 scale) [31, 43]
0: Corn plant response rating (0 to 100 scale) (corn (Zea mays) [21]; [40]) | Corn plant response rating (corn (Zea mays) [21]; [41]) | Wheat plant response rating [26, 41] | Barnyardgrass plant response rating (0 to 100 scale) [28, 40] | Barnyardgrass plant response rating [28, 41] | Foxtail, Green plant response rating [29, 41] | Pigweed plant response rating [31, 42] | Kochia plant response rating (kochia (Kochia scoparia) [33]; [42]) | Barnyardgrass plant response rating [34, 42] | Barnyardgrass plant response rating (0 to 100 scale) [34, 43] | Foxtail, Green plant response rating [35, 42] | Plant response rating, Sedge, Umbrella (0 to 100 scale, 0 is no effect, 100 is complete control) [36] | Plant response rating, Ducksalad (0 to 100 scale, 0 is no effect, 100 is complete control) [37] | Plant response rating, Rice (0 to 100 scale, 0 is no effect, 100 is complete control) (rice (Oryza sativa) [38]) | Plant response rating, Barnyardgrass (0 to 100 scale, 0 is no effect, 100 is complete control) [39]
50: Ragweed plant response rating (0 to 100 scale) [23, 40] | Pigweed plant response rating (0 to 100 scale) [24, 40] | Ryegrass, Italian plant response rating (0 to 100 scale) [32, 43]
70: Ryegrass, Italian plant response rating (0 to 100 scale) [25, 40] | Ragweed plant response rating (0 to 100 scale) [30, 43]
30: Ragweed plant response rating [23, 41] | Pigweed plant response rating [24, 41] | Ryegrass, Italian plant response rating [25, 41] | Kochia plant response rating (0 to 100 scale) (kochia (Kochia scoparia) [27]; [40]) | Ragweed plant response rating [30, 42]
10: Blackgrass plant response rating [22, 41] | Kochia plant response rating (kochia (Kochia scoparia) [27]; [41]) | Foxtail, Green plant response rating (0 to 100 scale) [29, 40] | Ryegrass, Italian plant response rating [32, 42]
20: Wheat plant response rating (0 to 100 scale) [26, 40] | Kochia plant response rating (0 to 100 scale) (kochia (Kochia scoparia) [33]; [43]) | Foxtail, Green plant response rating (0 to 100 scale) [35, 43]
60: Galium plant response rating [20, 41]
